In experiment [1] the target is Acetylcholinesterase (Electrophorus electricus) (UniProt O42275). Briefly: Inhibition of Electrophorus electricus AChE using acetylcholine as substrate by chromatography relative to control. The settings on record: concentration not given here.
The target of experiment [2] is Acetylcholinesterase (Electrophorus electricus, UniProt O42275). Put plainly: Competitive inhibition of Electrophorus electricus AChE using acetylcholine as substrate by Lineweaver-Burk plot method.
Acetylcholinesterase, sequence (O42275 whole entry): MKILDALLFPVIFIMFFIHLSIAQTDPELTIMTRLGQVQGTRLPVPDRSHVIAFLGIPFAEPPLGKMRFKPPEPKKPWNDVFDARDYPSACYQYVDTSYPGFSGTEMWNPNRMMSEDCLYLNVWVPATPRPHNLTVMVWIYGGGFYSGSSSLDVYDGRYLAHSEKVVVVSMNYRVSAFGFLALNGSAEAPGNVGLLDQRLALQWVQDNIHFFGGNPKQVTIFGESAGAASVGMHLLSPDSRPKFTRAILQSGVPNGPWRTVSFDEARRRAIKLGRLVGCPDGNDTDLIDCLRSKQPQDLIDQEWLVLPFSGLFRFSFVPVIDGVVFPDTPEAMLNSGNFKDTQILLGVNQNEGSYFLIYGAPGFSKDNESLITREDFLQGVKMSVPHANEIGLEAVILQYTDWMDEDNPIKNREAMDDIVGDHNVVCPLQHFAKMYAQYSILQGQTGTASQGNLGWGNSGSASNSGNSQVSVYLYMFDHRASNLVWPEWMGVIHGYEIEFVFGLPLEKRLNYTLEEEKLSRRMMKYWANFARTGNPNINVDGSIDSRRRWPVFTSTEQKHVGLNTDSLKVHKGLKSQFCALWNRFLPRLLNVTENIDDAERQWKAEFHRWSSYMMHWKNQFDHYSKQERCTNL

The text below walks through data of ChEMBL document CHEMBL2321709, “Acetylcholinesterase immobilized capillary reactors-tandem mass spectrometry: an on-flow tool for ligand screening” (J Med Chem, 2013).

Acetylcholinesterase (Electrophorus electricus), sequence (O42275 24-633 limits assumed): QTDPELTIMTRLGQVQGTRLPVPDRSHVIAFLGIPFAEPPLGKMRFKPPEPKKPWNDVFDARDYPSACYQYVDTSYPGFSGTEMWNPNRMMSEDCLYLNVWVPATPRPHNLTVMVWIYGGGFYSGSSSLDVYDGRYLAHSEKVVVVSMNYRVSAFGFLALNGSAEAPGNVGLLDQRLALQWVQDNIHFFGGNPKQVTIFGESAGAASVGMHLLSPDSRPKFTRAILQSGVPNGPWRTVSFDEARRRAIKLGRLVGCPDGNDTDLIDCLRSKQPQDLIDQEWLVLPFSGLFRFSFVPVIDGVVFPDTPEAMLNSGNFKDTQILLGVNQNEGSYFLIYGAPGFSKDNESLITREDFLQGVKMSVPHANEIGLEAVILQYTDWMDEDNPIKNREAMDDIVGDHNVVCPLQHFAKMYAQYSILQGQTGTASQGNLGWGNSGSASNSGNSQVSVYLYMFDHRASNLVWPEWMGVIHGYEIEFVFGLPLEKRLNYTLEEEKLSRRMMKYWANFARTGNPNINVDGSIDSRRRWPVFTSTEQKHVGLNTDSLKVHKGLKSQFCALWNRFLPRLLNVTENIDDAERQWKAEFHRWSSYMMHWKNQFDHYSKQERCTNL

In experiment [1], `CCOC(=O)c1cc2ccc(OCCN3CCCCC3)cc2oc1=O` showed an inhibition greater than 80%. In experiment [2], this compound returned an IC50 of 0.356 µM and a Ki of 0.031 µM.

As to `O=C(NCCN1CCCCC1)c1cc2ccccc2oc1=O`, in experiment [1], the inhibition is greater than 80%. In experiment [2], this compound displayed a half-maximal inhibitory concentration (IC50) of 12.6 µM and a Ki of 13.8 µM.
